# Data taken from patent US20040242650A1, “Extended dosing regimen” (priority 2003, published 2004).
# Marks after values point to notes of the source that are not given here.
# Assays:
# [1] = test system: Calu-6 lung subcutaneous flank xenografts; assay: Calu-6 flank xenograft model; format: in vivo, male nude mice; settings: q.d x1; for Tumor Volume Day 38: mean ± SEM; for % ILS: median, time to 1 cc vs vehicle; for % T/C Day 38: treated vs vehicle
# Description: (§1) Efficacy of N-[2-[(4-hydroxyphenyl)amino]-3-pyridyl]-4-methoxybenzenesulfonamide was tested in Calu-6 NSCL, MDA-MB-468 breast and HT-29 colon carcinoma xenografts grown in nude mice. The objectives were determination of the efficacy of N-[2-[(4-hydroxyphenyl)amino]-3-pyridyl]-4-methoxybenzenesulfonamide as a single agent and in combination with cisplatin in the Calu-6 NSCL flank xenograft model; determination the efficacy of N-[2-[(4-hydroxyphenyl)amino]-3-pyridyl]-4-methoxybenzenesulfonamide as a single agent and in combination with docetaxel in the MDA-MB 468 breast flank xenograft model; determination of the efficacy of N-[2-[(4-hydroxyphenyl)amino]-3-pyridyl]-4-methoxybenzenesulfonamide as a single agent and in combination with 5-FU in the HT-29 colon flank xenograft model; and comparison the efficacy of N-[2-[(4-hydroxyphenyl)amino]-3-pyridyl]-4-methoxybenzenesulfonamide administered on 2 different schedules (q.d. vs b.i.d.) in the Calu-6 and HT-29 xenogaft model.
# (§2) Following inoculation of tumor cells, tumors were passaged three times in mice before using the fragments to generate single cell suspensions. Multiple animals were used as donors. Single cell suspensions were generated by homogenizing the minced tumor tissue in RPMI 1640 media. Cell suspensions were washed three times to remove debris and other foreign materials. Viable cells were counted by trypan blue exclusion technique using a hemocytometer. Mice were injected subcutaneously with 0.5 ml of the cell suspension containing 1×10^6 cells.
# Tumor cells were inoculated s.c. into male nude mice on day 0. On day 10, mice bearing established tumors were size matched at ˜233 mm^3 and placed into the following groups:
# (§3) N-[2-[(4-hydroxyphenyl)amino]-3-pyridyl]-4-methoxybenzenesulfonamide—100, and 75 mg/kg/day (p.o., q.d., 5 days on, 5 days off ×2)
# N-[2-[(4-hydroxyphenyl)amino]-3-pyridyl]-4-methoxybenzenesulfonamide—50 and 0 mg/kg/day (p.o., q.d. ×21 or p.o., b.i.d. ×21)
# Cisplaitn—20, 10, 8 and 0 mg/kg/day (ip, qd ×1)
# Combination Therapy—100/10, 75/10, 100/8 mg/kg/day (p.o., q.d., 5 days on, 5 days off ×2/ip, qd ×1), 50/10 mg/kg/day (p.o., q.d., ×21/ ip, qd ×1)
# [2] = test system: HT-29 colon subcutaneous flank xenografts; assay: HT-29 flank xenograft model; format: in vivo, nude mice; settings: q.d x5; for Tumor Volume Day 38: mean ± SEM; for % ILS: median, time to 1 cc vs vehicle; for % T/C Day 38: treated vs vehicle
# Description: as §1, §2
# Tumor cells derived from serially passaged tumor fragments were inoculated s.c. in female nude mice on day 0. On day 10, mice bearing established tumors were size matched at ˜236 mm^3 and placed into the following groups:
# 1. N-[2-[(4-hydroxyphenyl)amino]-3-pyridyl]-4-methoxybenzenesulfonamide—100, and 75 mg/kg/day (p.o., q.d., 5 days on, 5 days off ×2)
# 2. N-[2-[(4-hydroxyphenyl)amino]-3-pyridyl]-4-methoxybenzenesulfonamide—50 and 0 mg/kg/day (p.o., q.d. ×21 or p.o., b.i.d. ×21)
# Combination Therapy—100/30, 75/30, mg/kg/day (p.o., q.d., 5 days on, 5 days off ×2/ip, qd ×1), 50/10 mg/kg/day (p.o., q.d., ×21/ip, qd ×1).
# [3] = test system: MDA-MB-468 breast subcutaneous flank xenografts; assay: MDA-MB-468 breast flank xenograft model; format: in vivo, female nude mice; settings: q.d x1; for Tumor Volume Day 38: mean ± SEM; for % ILS: median, time to 1 cc vs vehicle; for % T/C Day 38: treated vs vehicle
# Description: as §1, §2
# Efficacy of N-[2-[(4-hydroxyphenyl)amino]-3-pyridyl]-4-methoxybenzenesulfonamide in the MDA-MB-468 Breast Flank Xenograft Model. Tumor cells derived from serially passaged tumor fragments were inoculated s.c. in female nude mice on day 0. On day 10, mice bearing established tumors were size matched at ˜231 mm^3 and placed into the following groups:
# as §3
# N-[2-[(4-hydroxyphenyl)amino]-3-pyridyl]-4-methoxybenzenesulfonamide—50 and 0 mg/kg/day (p.o., q.d. ×21)
# Docetaxel—40, 33.3, 16.7 and 0 mg/kg/day (i.v., qd ×1)
smiles,measurement,setting,value
"N.N.[Cl][Pt][Cl] [Cisplatin, cisplatin, reference compound]",Tumor Volume Day 38,[1]; 8 mg/kg/day i.p.,1649 ± 67 mm^3
same,% ILS,[1]; 8 mg/kg/day i.p.,29*** %
same,% T/C Day 38,[1]; 8 mg/kg/day i.p.,63*** %
same,Tumor Volume Day 38,[1]; 10 mg/kg/day i.p.,914 ± 49 mm^3
same,% ILS,[1]; 10 mg/kg/day i.p.,71*** %
same,% T/C Day 38,[1]; 10 mg/kg/day i.p.,35*** %
same,Tumor Volume Day 38,[1]; 20 mg/kg/day i.p.,1472 ± 75 mm^3
same,% ILS,[1]; 20 mg/kg/day i.p.,58*** %
same,% T/C Day 38,[1]; 20 mg/kg/day i.p.,56*** %
"O=c1[nH]cc(F)c(=O)[nH]1 [5-FU, 5-fluorouracil, reference compound]",Tumor Volume Day 38,[2]; 20 mg/kg/day i.p.,1413 ± 80 mm^3
same,% ILS,[2]; 20 mg/kg/day i.p.,25*** %
same,% T/C Day 38,[2]; 20 mg/kg/day i.p.,59*** %
same,Tumor Volume Day 38,[2]; 30 mg/kg/day i.p.,525 ± 35 mm^3
same,% ILS,[2]; 30 mg/kg/day i.p.,75*** %
same,% T/C Day 38,[2]; 30 mg/kg/day i.p.,22*** %
same,Tumor Volume Day 38,[2]; 40 mg/kg/day i.p.,973 ± 45 mm^3
same,% ILS,[2]; 40 mg/kg/day i.p.,50*** %
same,% T/C Day 38,[2]; 40 mg/kg/day i.p.,41*** %
"CC(=O)O[C@@]12CO[C@@H]1C[C@H](O)[C@@]1(C)C(=O)[C@H](O)C3=C(C)[C@@H](OC(=O)[C@H](O)[C@@H](NC(=O)OC(C)(C)C)c4ccccc4)C[C@@](O)([C@@H](OC(=O)c4ccccc4)[C@H]21)C3(C)C [Docetaxel, docetaxel, reference compound]",Tumor Volume Day 38,[3]; 16.7 mg/kg/day i.v.,1909 ± 101 mm^3
same,% ILS,[3]; 16.7 mg/kg/day i.v.,26*** %
same,% T/C Day 38,[3]; 16.7 mg/kg/day i.v.,68*** %
same,Tumor Volume Day 38,[3]; 33.3 mg/kg/day i.v.,551 ± 31 mm^3
same,% ILS,[3]; 33.3 mg/kg/day i.v.,67*** %
same,% T/C Day 38,[3]; 33.3 mg/kg/day i.v.,19*** %
same,Tumor Volume Day 38,[3]; 40 mg/kg/day i.v.,1008 ± 58 mm^3
same,% ILS,[3]; 40 mg/kg/day i.v.,52*** %
same,% T/C Day 38,[3]; 40 mg/kg/day i.v.,36*** %
